Like-named read-outs stand apart in the source and are kept apart here.
Columns and labels:
[1] = Pharmacokinetic (bioavailability) study of ibuprofen + ketoprofen nasal spray in healthy adult human subjects, plasma by LC-MS/MS
Procedure: Pharmacokinetic study to evaluate the bioavailability of the pharmaceutical composition prepared according to the present disclosure.
Blood samples were centrifuged at about 4000 rpm for 10 minutes at 4±2° C. to separate the plasma. The resulting plasma was equally transferred into 2. These aliquots were stored frozen, upright in a freezer within 90 minutes of blood collection time of each sample at a temperature of −70° C. […] until they were analyzed.
Sample values below the LLOQ were reported as Below Quantification Limit (BQL). Pharmacokinetic parameters were calculated using Phoenix® WinNonlin® software (version: 8.3). The following parameters were calculated:
Primary pharmacokinetic parameters: Cmax, AUC0-t and AUC0-∞ Secondary pharmacokinetic parameters: tmax, t1/2, Kel and AUC_% Extrap_obs.

[2] = cited from earlier work
[3] = topical sustained release composition, at three hours; cited from earlier work

SMILES | AUC(0-inf) ([1]; human, in vivo, inhaled or intranasal, AUC0-∞ range over the dose range of the composition, intranasal, dosage unit 0.4-8 mg ibuprofen and 0.025-0.48 mg ketoprofen) [ng·h/mL] | Cmax ([1]; human, in vivo, inhaled or intranasal, plasma Cmax range over the dose range of the composition, intranasal, dosage unit 0.4-8 mg ibuprofen and 0.025-0.48 mg ketoprofen) [ng/mL] | Cmax ([1]; human, in vivo, inhaled or intranasal, plasma Cmax, intranasal, 8 sprays (100 μL each), printed as equivalent to 1.816 mg ibuprofen and 0.24 mg ketoprofen) [ng/mL] | Cmax lower than expected Cmax of minimum approved oral dose ([1]; intranasal 8 sprays vs oral 200 mg ibuprofen / 12.5 mg ketoprofen) | expected Cmax for the minimum approved oral dose ([2]; oral ibuprofen 200 mg, as reported in the literature) | maximum plasma concentration ([2]; oral ibuprofen, 400 mg) [µg/mL] | time of maximum plasma concentration ([2]; oral ibuprofen, 400 mg) [min] | peak plasma concentration ([2]; oral ibuprofen, dose 100 mg) [µg/mL] | time of peak plasma concentration ([2]; oral ibuprofen, dose 100 mg) [min] | peak plasma concentration of ketoprofen [3] | peak plasma concentration ([2]; oral ketoprofen, dose 50 mg) [µg/mL] | time of peak plasma concentration ([2]; oral ketoprofen, dose 50 mg) [min]
CC(C)Cc1ccc(C(C)C(=O)O)cc1 (stereo not drawn) [ibuprofen] | 133 to 1920 | 41.4 to 828 | 165 | approximately 100 times | approximately 17.3 μg/mL | 32.8 | 90 | 9.5 | 116 |  |  | 
CC(C(=O)O)c1cccc(C(=O)c2ccccc2)c1 (stereo not drawn) [ketoprofen] |  |  |  |  |  |  |  |  |  | at most 450 ng/ml | 2.6 | 134
